# Article PMC6934184, “Selective DNA-PKcs inhibition extends the therapeutic index of localized radiotherapy and chemotherapy” (The Journal of Clinical Investigation, 2019)
# Biological target: T1, PTK6 (Brk) (Homo sapiens, UniProt Q13882)
# T1 construct: purchased Thermo Fisher Scientific (Life Technologies) SelectScreen
# Experiment: SelectScreen Z'LYTE
# Assay type: biochemical
# In short: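 Percent values come from Thermo SelectScreen profiling of NU5455, combining activity and binding assays. CSF1R was run in Z'LYTE format at Km app ATP, and CAMK1 in Adapta format with ATP listed at 10.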
# T1 sequence (Q13882 whole entry): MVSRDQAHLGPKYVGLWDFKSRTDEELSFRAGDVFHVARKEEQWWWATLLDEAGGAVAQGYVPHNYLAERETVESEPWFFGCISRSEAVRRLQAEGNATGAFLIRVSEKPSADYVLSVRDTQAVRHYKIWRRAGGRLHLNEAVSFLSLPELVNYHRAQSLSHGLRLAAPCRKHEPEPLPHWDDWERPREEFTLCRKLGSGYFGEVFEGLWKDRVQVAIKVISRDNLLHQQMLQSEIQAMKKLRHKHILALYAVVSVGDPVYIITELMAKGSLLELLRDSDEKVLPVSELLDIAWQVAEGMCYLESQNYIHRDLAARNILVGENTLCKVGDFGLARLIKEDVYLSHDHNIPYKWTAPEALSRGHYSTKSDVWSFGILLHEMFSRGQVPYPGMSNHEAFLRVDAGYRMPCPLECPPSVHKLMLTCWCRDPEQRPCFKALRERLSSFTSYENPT
compound,measurement,value
CN(C(=O)CN1CCOCC1)c1ccc2sc3c(-c4cccc5c(=O)cc(N6CC7CCC(C6)O7)oc45)cccc3c2c1 [NU5455],inhibition at 1 µM,0.7%
